This is an account of results in US8227240B2, “Systems for screening pharmaceutical chemicals” (The Washington University, priority 2001, dated 2012).

One series has as its system cardiac fibroblasts. The experiment in a line: Mechanical tests of tissue model rings cultured with MMP inhibitor. The following applies: 50 μM GM6001 for 6 days. Type of series: cell-based. As to the method: The tissue models made using cardiac fibroblasts are incubated with 50 .μM GM6001 for 6 days. The tissue culture medium is replenished every other day with fresh medium containing GM6001. The tissue model rings were subjected to mechanical tests as described above.

A further series has as its target MMPs. The following applies: purified system; cited from earlier work.
The subject of a further series is animals. The following applies: in vivo; cited from earlier work.
The test system of a further series is ring tissue model. The experiment in a line: Contractile force developed by ring sample during tissue development (matrix remodeling and compression). Type of series: cell-based. On the procedure:
The contractile force developed by the ring sample during matrix remodeling and compression can be measured by connecting the ring to the force measuring apparatus as described above within about 1-2 hours after collagen gelation. The cells begin to exert a force on the matrix after this time. Then the increase of force during tissue development (remodeling and compression) is observed over time.
Maximum force is typically reached within 15 to 20 hours. This process was also disrupted by several inhibitors as illustrated in FIGS. 18(b)-(d).

The next series has as its system chicken cardiac cells. The experiment in a line: Force response of regular and miniaturized cardiac tissue models. Type of series: cell-based. Particulars: regular and miniaturized tissues, after calf serum. On the procedure: The sample sizes are determined by the diameters of the mandrels and inner diameters of the wells. […] Miniaturized samples made using chick cardiac cells show twitch responses. Therefore this system can be used to test the effects of pharmaceutical candidates treating cardiac dysfunctions (Insert in FIG. 9b)

A further series has as its system NIH 3T3 cells. The experiment in a line: Stress relaxation of tension in connective tissue models. The format is cell-based. The following applies: different amounts. On the procedure: The connective tissue models made using NIH 3T3 cells were treated with different amounts of the candidate pharmaceutical, Y27632, a Rho kinase specific inhibitor, which has been tested for reducing tension of smooth muscle strips such as rabbit aortic rings (Nature 239 (1997) 990-993). It is one of the promising drug candidates for treating hypertension in the future. Depending on the agonists used to stimulate the tissue contraction, the degree of reduction in tension is different (FIG. 21). […] Thus, the methods are useful for screening pharmaceutical candidates.

In a further series the test system is myosin ATPase. The experiment in a line: Inhibition of contractile force activated by 20% FBS in ring sample. Type of series: cell-based. Particulars: after prior addition of 20% FBS; 2, 4, 20, and 40 μM BDM. As to the method: In a related experiment, FBS was added to activate the contractile force and then a myosin ATPase inhibitor was added.

As to `CNC(=O)[C@H](Cc1c[nH]c2ccccc12)NC(=O)[C@@H](CC(=O)NO)CC(C)C` [GM6001, N-[(2R)-2-(Hydroxamid-ocarbonylmethyl)-4-methylpentanoyl]-L-tryptophan methylamide], the “mechanical properties of tissue model rings compared to controls” value in the series with cardiac fibroblasts is on record as “significant reduction”. For the same molecule, the “Ki values for different MMPs” value at MMPs is “around nmol/l”. Moreover, the “concentration of inhibitor at which effects in animals can be observed” value in the series with animals is reported as “sub mmol/l”.

For `CO[C@H]1[C@@H](OC)C[C@H](C)[C@@H](OC)C2=CC(=O)C=C(NC(=O)/C(C)=C/C=C\[C@H](OC)[C@@H](OC(N)=O)/C(C)=C/[C@@H]1C)C2=O` [herbimycin A], the “maximum force during ring tissue development” value in the series on ring tissue model is given as “reduces the maximum force”.

Regarding `COC(=O)Nc1nc2ccc(C(=O)c3cccs3)cc2[nH]1` [nocodazole], the “maximum force during ring tissue development” value in the series on ring tissue model is on record as “reduces the maximum force”.

As to `CCO` [ethanol], the “force and stiffness of tissue models” value with tissue models (10% solution of ethanol) is “reduces force and stiffness of tissue models significantly”. The “level of baseline force maintained by the viable cells” value in the series with tissue models (different dose of ethanol) is on record as “decrease”.

For `C[C@@H](N)[C@H]1CC[C@H](C(=O)Nc2ccncc2)CC1` [Y27632], the “force of cardiac tissue models” value with chicken cardiac cells is recorded as “decreased”. Also, the “tension of connective tissue models” value in the series on NIH 3T3 cells is “reduces the tension”.

In the case of `CC(=O)C(C)=NO` [BDM, butane dione monoxime], the “fully activated contractile force” value in the series with myosin ATPase was “reduced, in a dose dependent manner”.
